Where two headings read alike, the source gives them in different places.
Experiments:
[1] = target: T1, human 5-HT2C receptor (Homo sapiens, UniProt P28335); test: cell-based
T1 construct: expressed in transfected cells; host or cells: U2OS, stably transfected
T1 sequence (P28335 33-458): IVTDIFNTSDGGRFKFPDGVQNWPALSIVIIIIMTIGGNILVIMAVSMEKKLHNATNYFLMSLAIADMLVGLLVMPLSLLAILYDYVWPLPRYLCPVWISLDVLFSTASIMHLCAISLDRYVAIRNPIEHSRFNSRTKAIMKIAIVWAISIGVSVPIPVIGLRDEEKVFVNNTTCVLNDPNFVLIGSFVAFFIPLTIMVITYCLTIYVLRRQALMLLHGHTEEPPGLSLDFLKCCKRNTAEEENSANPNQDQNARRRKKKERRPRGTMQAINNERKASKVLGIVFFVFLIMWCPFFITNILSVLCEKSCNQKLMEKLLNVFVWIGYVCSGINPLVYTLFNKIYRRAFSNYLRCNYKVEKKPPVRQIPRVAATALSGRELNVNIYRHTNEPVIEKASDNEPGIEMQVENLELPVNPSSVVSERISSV

[2] = target: human 5-HT2A receptor (Homo sapiens, UniProt P28223); test: h-5HT2A β-arrestin reporter assay in U2OS cells; assay type: cell-based; design: expressed in transfected cells
Procedure: (§1) Compound potency (EC50) and efficacy (Max response) against the human 5-HT2A receptor in stably transfected U2OS cells was determined in a G protein-coupled receptors (GPCR) cell based p-arrestin reporter assay. Cells were seeded in a total volume of 20 μL into white walled, 384-well microplates and incubated at 37° C. overnight before analysis. For agonist determination, cells were incubated with sample to induce response. Intermediate dilution of sample stocks was performed to generate 5×sample in assay buffer. 5 μL of 5×sample was added to cells and incubated at 37° C. for 120 minutes. Final assay vehicle concentration was 1%.
as §1, with “5-HT2Areceptor” for “5-HT2A receptor”, “GPCR” for “G protein-coupled receptors (GPCR)”, “P-arrestin” for “p-arrestin”

[3] = target: 5-HT2B receptor (Homo sapiens, UniProt P41595); test: h-5HT2B positive allosteric modulator (PAM) assay in HEK293 cells; assay type: cell-based; design: expressed in transfected cells; host or cells: HEK293, stably transfected; settings: for Emax (% of serotonin): PAM mode
Procedure: Compound potency (EC50) and efficacy (Max response) against the human 5-HT2B receptor in stably transfected HEK293 cells was determined in a GPC R cell-based assay.
(§2) For Positive Allosteric Modulator determination, cells were pre-incubated with sample followed by EC20 addition. Intermediate dilution of sample stocks was performed to generate 5×sample in assay buffer. 5 μL of 5×sample was added to cells and incubated at 37° C. for 10 minutes. 5 μL of agonist at 6×EC20 concentration was added and cells were incubated at 37° C. for 120 minutes. Final assay vehicle concentration was 1%. The results are expressed as a percent efficacy relative to the maximum response of the control ligand (serotonin) in Table 29.
as §2, with “58.” for “29.”

[4] = target: T2, human 5-HT1A receptor (Homo sapiens, UniProt P08908); test: Human 5HT1A cAMP assay in CHO-K1 cells; assay type: cell-based; design: expressed in transfected cells
T2 sequence (P08908 1-422): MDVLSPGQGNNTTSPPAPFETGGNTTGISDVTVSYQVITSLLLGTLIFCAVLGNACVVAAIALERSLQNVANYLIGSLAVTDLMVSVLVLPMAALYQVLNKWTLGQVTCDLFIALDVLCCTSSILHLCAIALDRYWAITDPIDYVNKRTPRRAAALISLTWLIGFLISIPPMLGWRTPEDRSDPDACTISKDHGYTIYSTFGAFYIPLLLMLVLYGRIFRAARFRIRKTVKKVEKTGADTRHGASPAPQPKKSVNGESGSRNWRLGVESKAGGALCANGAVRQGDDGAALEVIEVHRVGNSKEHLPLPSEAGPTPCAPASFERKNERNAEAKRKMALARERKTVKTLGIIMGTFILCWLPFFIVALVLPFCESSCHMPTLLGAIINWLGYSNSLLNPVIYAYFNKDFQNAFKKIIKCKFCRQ
Procedure: Compound potency (EC50) and efficacy (Max response) against the human 5-HT1A receptor in stably transfected CHO-K1 cells was determined in a GPCR cell-based cAMP assay.
(§3) Cells were seeded in a total volume of 20 μL into white walled, 384-well microplates and incubated at 37° C. overnight before analysis. Prior to testing, cell plating media was exchanged with 10 μL of Assay buffer (HBSS+10 mM HE P E S). Briefly, intermediate dilution of sample stocks was performed to generate 4×sample in assay buffer. 5 μL of 4×sample+5 μL of 4×forskolin was added to cells and incubated at 37° C. for 30 minutes. Final assay vehicle concentration was 1%. The results are expressed as a percent efficacy relative to the maximum response of the control ligand (serotonin) in Table 27.
as §3, with “HEPES).” for “HE P E S).”, “4×sample +5” for “4×sample+5”, “56.” for “27.”

[5] = FLIPR calcium mobilization, U2OS cells
[6] = β-arrestin reporter, U2OS cells
[7] = relative to maximum response of serotonin (Table 56)
[8] = calcium mobilization, U2OS cells (Table 30)
[9] = relative to maximum response of serotonin (Table 30)
[10] = relative to maximum response of control ligand serotonin
[11] = relative to maximum response of serotonin (Table 29)
[12] = relative to maximum response of serotonin (Table 27)

Chain of 5-HT2B receptor (P41595 whole entry): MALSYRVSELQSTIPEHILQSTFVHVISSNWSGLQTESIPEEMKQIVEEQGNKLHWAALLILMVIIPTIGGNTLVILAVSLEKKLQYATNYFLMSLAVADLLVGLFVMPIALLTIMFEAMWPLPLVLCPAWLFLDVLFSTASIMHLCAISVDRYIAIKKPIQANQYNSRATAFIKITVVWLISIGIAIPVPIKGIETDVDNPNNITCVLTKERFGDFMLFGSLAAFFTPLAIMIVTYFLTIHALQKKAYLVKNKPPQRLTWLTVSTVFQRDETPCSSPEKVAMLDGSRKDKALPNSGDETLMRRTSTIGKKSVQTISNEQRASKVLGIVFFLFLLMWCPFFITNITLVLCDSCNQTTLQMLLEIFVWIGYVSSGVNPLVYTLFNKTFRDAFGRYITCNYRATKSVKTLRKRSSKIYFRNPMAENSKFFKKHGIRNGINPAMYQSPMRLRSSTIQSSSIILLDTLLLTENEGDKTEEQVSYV
Chain of human 5-HT2A receptor (P28223 whole entry): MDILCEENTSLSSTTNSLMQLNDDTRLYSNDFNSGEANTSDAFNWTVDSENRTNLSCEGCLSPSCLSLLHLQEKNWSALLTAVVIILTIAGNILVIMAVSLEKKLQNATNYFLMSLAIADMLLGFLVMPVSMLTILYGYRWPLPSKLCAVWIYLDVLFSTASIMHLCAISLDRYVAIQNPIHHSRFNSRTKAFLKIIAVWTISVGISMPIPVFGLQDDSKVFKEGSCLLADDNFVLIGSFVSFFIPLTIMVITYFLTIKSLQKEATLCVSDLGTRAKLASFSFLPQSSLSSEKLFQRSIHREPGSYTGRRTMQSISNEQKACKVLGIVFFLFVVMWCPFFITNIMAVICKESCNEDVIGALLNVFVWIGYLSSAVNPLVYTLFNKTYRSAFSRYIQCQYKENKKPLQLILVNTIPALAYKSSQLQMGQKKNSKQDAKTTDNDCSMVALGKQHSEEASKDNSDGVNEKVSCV

SMILES | EC50 [1, 5] [nM] | Emax (% of serotonin) [1, 5] | EC50 [2] [nM] | Emax (% of serotonin) [2, 6] | EC50 [3] [nM] | Emax (% of serotonin) ([3]; HEK293 cells, relative to max response of serotonin) | EC50 [4] [nM] | Emax (% of serotonin) [4, 7] | EC50 [1, 8] [nM] | Emax (% of serotonin) [1, 9] | Emax (% of serotonin) [2, 10] | Emax (% of serotonin) [3, 11] | Emax (% of serotonin) [4, 12] | EC50 ([2]; β-arrestin reporter, U2OS cells, 120 min, read-out: EC50) [nM] | EC50 ([2]; β-arrestin reporter, U2OS cells, read-out: EC50) [nM]
COc1ccc2[nH]cc(CCN3CC[C@H](OC(F)F)C3)c2c1 [(S) I-67, (S)-3-(2-(3-(Difluoromethoxy)pyrrolidin-1-yl)ethyl)-5-methoxy-1H-indole] | 2690 | 75.3 % of serotonin | 2070 | 38.02 % of serotonin | > 10000 | 0 % of serotonin | 11.6 | 98.47 % of serotonin |  |  |  |  |  |  | 
[2H]C([2H])([2H])N(CCc1c[nH]c2ccc(SC)cc12)C([2H])([2H])[2H] [Compound I-1, N,N-Bis(methyl-d3)-2-(5-(methylthio)-1H-indol-3-yl)ethan-1-amine] |  |  | 58.4 |  | > 10000 |  | 11.1 |  | 2.37 | 98.89 % of serotonin | 74 % of serotonin | 0 % of serotonin | 96.18 % of serotonin |  | 
CCN(C)CCc1c[nH]c2ccc(SC)cc12 [Compound I-13, N-Ethyl-N-methyl-2-(5-(methylthio)-1H-indol-3-yl)ethan-1-amine] |  |  | 59.5 |  | > 10000 |  | 9.06 |  | 2.89 | 92.77 % of serotonin | 75.27 % of serotonin | 0 % of serotonin | 100.52 % of serotonin |  | 
CN(C)CCc1c[nH]c2ccccc12 [DMT] |  |  |  | 38.86 % of serotonin |  |  |  | 87.1 % of serotonin |  |  | 38.86 % of serotonin |  | 87.1 % of serotonin | 114 | 114

From US20250257034A1, “INDOLE DERIVATIVES AS SEROTONERGIC AGENTS USEFUL FOR THE TREATMENT OF DISORDERS RELATED THERETO” (priority 2023, published 2025)
